Measurements published in US20240067693A1, “POLYPEPTIDES AND USES THEREOF” (MEDIMMUNE LIMITED, priority 2020, published 2024).
Numbered stars: 1 amine (or outer) side, 2 acyl side, 3 side chain; on linkers, the order of the positions; unused ones are H or OH. Bridge positions count the residues as written; N and C are the ends. Square brackets hold non-standard residues; d marks the D form. Side chains are listed from the residue outwards. Peptide text beside a SMILES is read from it. * marks the point of attachment. C18 diacid = O=C(O)CCCCCCCCCCCCCCCCC(=O)*; γGlu = O=C(O)[C@H](CCC(=O)[*:2])N[*:1]; Aib = CC(C)(N)C(=O)O

Experiments:
[1] = biological target: T1, human calcitonin receptor (hCTR) (Homo sapiens, UniProt P30988); assay: cAMP production in 1321N1 cells with stable recombinant expression of human calcitonin receptor (hCTR); format: cell-based; details: cAMP, 1321N1 cells, assay buffer with 0.1% BSA; read-out: EC50 (pM) hCTR
T1 construct: expressed in transfected cells
T1 sequence (P30988 25-474): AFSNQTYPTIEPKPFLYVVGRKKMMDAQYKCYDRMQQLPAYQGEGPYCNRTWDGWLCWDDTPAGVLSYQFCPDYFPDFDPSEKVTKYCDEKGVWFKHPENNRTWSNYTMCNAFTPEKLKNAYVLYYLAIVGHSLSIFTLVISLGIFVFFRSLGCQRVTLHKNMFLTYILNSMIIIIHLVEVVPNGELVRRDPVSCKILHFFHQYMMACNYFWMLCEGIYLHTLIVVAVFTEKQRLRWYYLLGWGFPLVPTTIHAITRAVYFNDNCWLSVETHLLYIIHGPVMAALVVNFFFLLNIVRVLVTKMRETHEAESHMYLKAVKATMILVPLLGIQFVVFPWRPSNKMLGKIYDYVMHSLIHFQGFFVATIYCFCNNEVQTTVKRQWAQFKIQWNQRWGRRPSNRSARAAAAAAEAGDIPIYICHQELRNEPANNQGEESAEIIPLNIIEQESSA
How it was run: (§1)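 EC50 values come from 4-parameter logistic fits of HTRF cAMP signal, normalised to maximal calcitonin or amylin effect. Peptides were tested in duplicate for 30 min at RT in IBMX-containing (0.5 mM) BSA/HEPES buffer pH 7.4 on stable 1321N1 (human CTR, AMYR3) or HEK (rat CTR, AMYR3) lines.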

[2] = biological target: T2, human amylin receptor (calcitonin receptor co-expressed with receptor activity modifying protein, RAMP3) (hAMYR3) (Homo sapiens, UniProt O60896+P30988); assay: cAMP production in 1321N1 cells with stable recombinant expression of human amylin receptor (hAMYR3); format: cell-based; details: for Ratio (selectivity hAMYR vs hCTR, ratio of EC50 values at the two receptors): EC50 hCTR / EC50 hAMYR3; for EC50: cAMP, 1321N1 cells, assay buffer with 0.1% BSA, read-out: EC50 (pM) hAMYR3
T2 construct: expressed in transfected cells
T2 sequence (P30988 25-474): T1 sequence (P30988 25-474)
T2 sequence (O60896 24-148 partner): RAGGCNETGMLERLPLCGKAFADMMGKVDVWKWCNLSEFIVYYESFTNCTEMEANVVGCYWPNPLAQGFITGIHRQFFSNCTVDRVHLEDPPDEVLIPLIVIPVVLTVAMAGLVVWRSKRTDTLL
How it was run: as §1

| SMILES | EC50 [1] [pM] | Ratio (selectivity hAMYR vs hCTR, ratio of EC50 values at the two receptors) [2] | EC50 [2] [pM] |
| --- | --- | --- | --- |
| CC[C@H](C)[C@H](NC(=O)[C@@H]1CCCN1C(=O)CNC(=O)[C@H](Cc1ccccc1)NC(=O)[C@H](CC(N)=O)NC(=O)C(C)(C)NC(=O)[C@H](CO)NC(=O)[C@H](CO)NC(=O)[C@H](Cc1c[nH]cn1)NC(=O)[C@@H](NC(=O)[C@H](CC(C)C)NC(=O)[C@H](Cc1ccccc1)NC(=O)[C@H](CC(N)=O)NC(=O)[C@H](C)NC(=O)[C@H](CC(C)C)NC(=O)[C@H](CCCNC(=N)N)NC(=O)[C@H](CCC(N)=O)NC(=O)[C@@H](NC(=O)[C@H](C)NC(=O)[C@@H]1CSSC[C@H](NC(=O)[C@@H](N)CCCCNC(=O)CC[C@H](NC(=O)CCCCCCCCCCCCCCCCC(=O)O)C(=O)O)C(=O)N[C@@H](CC(N)=O)C(=O)N[C@@H]([C@@H](C)O)C(=O)N[C@@H](C)C(=O)N[C@@H]([C@@H](C)O)C(=O)N1)[C@@H](C)O)C(C)C)C(=O)N[C@H](CC(C)C)C(=O)N1CCC[C@H]1C(=O)N1CCC[C@H]1C(=O)N[C@H](C(=O)N[C@@H](CC(N)=O)C(=O)N[C@H](C(=O)NCC(=O)N[C@@H](CO)C(=O)N[C@@H](CC(N)=O)C(=O)N[C@H](C(=O)N[C@@H](Cc1ccc(O)cc1)C(N)=O)[C@@H](C)O)C(C)C)[C@@H](C)O [Peptide 59, K(γE-C18diacid)[CNTATC]ATQRLANFLVHSS(Aib)NFGPI(dL)PPTNVGSNTY-amide] (H-K([γGlu-C18 diacid])CNTATCATQRLANFLVHSS[Aib]NFGPI[dL]PPTNVGSNTY-NH2; disulfide 2-7; N-terminus assumed) | 809 | 5 | 157 |
| CC[C@H](C)[C@H](NC(=O)[C@@H]1CCCN1C(=O)CNC(=O)[C@H](Cc1ccccc1)NC(=O)[C@H](CC(N)=O)NC(=O)C(C)(C)NC(=O)[C@H](CO)NC(=O)[C@H](CO)NC(=O)[C@H](Cc1c[nH]cn1)NC(=O)[C@@H](NC(=O)[C@H](CC(C)C)NC(=O)[C@H](Cc1ccccc1)NC(=O)[C@H](CC(N)=O)NC(=O)[C@H](C)NC(=O)[C@H](CC(C)C)NC(=O)[C@H](CCCNC(=N)N)NC(=O)[C@H](CCC(N)=O)NC(=O)[C@@H](NC(=O)[C@H](C)NC(=O)[C@@H]1CSSC[C@H](NC(=O)[C@@H](N)CCCCNC(=O)CC[C@H](NC(=O)CCCCCCCCCCCCCCCCC(=O)O)C(=O)O)C(=O)N[C@@H](CC(N)=O)C(=O)N[C@@H]([C@@H](C)O)C(=O)N[C@@H](C)C(=O)N[C@@H]([C@@H](C)O)C(=O)N1)[C@@H](C)O)C(C)C)C(=O)N[C@@H](CC(C)C)C(=O)N1CCC[C@@H]1C(=O)N1CCC[C@H]1C(=O)N[C@H](C(=O)N[C@@H](CC(N)=O)C(=O)N[C@H](C(=O)NCC(=O)N[C@@H](CO)C(=O)N[C@@H](CC(N)=O)C(=O)N[C@H](C(=O)N[C@@H](Cc1ccc(O)cc1)C(N)=O)[C@@H](C)O)C(C)C)[C@@H](C)O [Peptide 60, K(γE-C18diacid)[CNTATC]ATQRLANFLVHSS(Aib)NFGPIL(dP)PTNVGSNTY-amide] (H-K([γGlu-C18 diacid])CNTATCATQRLANFLVHSS[Aib]NFGPIL[dP]PTNVGSNTY-NH2; disulfide 2-7; N-terminus assumed) | 1030 | 11 | 96 |
| CC[C@@H](C)[C@@H](NC(=O)[C@@H]1CCCN1C(=O)CNC(=O)[C@H](Cc1ccccc1)NC(=O)[C@H](CC(N)=O)NC(=O)C(C)(C)NC(=O)[C@H](CO)NC(=O)[C@H](CO)NC(=O)[C@H](Cc1c[nH]cn1)NC(=O)[C@@H](NC(=O)[C@H](CC(C)C)NC(=O)[C@H](Cc1ccccc1)NC(=O)[C@H](CC(N)=O)NC(=O)[C@H](C)NC(=O)[C@H](CC(C)C)NC(=O)[C@H](CCCNC(=N)N)NC(=O)[C@H](CCC(N)=O)NC(=O)[C@@H](NC(=O)[C@H](C)NC(=O)[C@@H]1CSSC[C@H](NC(=O)[C@@H](N)CCCCNC(=O)CC[C@H](NC(=O)CCCCCCCCCCCCCCCCC(=O)O)C(=O)O)C(=O)N[C@@H](CC(N)=O)C(=O)N[C@@H]([C@@H](C)O)C(=O)N[C@@H](C)C(=O)N[C@@H]([C@@H](C)O)C(=O)N1)[C@@H](C)O)C(C)C)C(=O)N[C@@H](CC(C)C)C(=O)N1CCC[C@H]1C(=O)N1CCC[C@H]1C(=O)N[C@H](C(=O)N[C@@H](CC(N)=O)C(=O)N[C@H](C(=O)NCC(=O)N[C@@H](CO)C(=O)N[C@@H](CC(N)=O)C(=O)N[C@H](C(=O)N[C@@H](Cc1ccc(O)cc1)C(N)=O)[C@@H](C)O)C(C)C)[C@@H](C)O [Peptide 61, K(γE-C18diacid)[CNTATC]ATQRLANFLVHSS(Aib)NFGP(dl)LPPTNVGSNTY-amide] (H-K([γGlu-C18 diacid])CNTATCATQRLANFLVHSS[Aib]NFGP[dI]LPPTNVGSNTY-NH2; disulfide 2-7; N-terminus assumed) | 654 | 7 | 99 |

Continued, values first:

| EC50 [1] [pM] | Ratio (selectivity hAMYR vs hCTR, ratio of EC50 values at the two receptors) [2] | EC50 [2] [pM] | SMILES |
| --- | --- | --- | --- |
| 7250 | 43 | 167 | CC[C@H](C)[C@H](NC(=O)[C@@H]1CCCN1C(=O)CNC(=O)[C@H](Cc1ccccc1)NC(=O)[C@H](CC(N)=O)NC(=O)C(C)(C)NC(=O)[C@H](CO)NC(=O)[C@H](CO)NC(=O)[C@H](Cc1c[nH]cn1)NC(=O)[C@@H](NC(=O)[C@@H](CC(C)C)NC(=O)[C@H](Cc1ccccc1)NC(=O)[C@H](CC(N)=O)NC(=O)[C@H](C)NC(=O)[C@H](CC(C)C)NC(=O)[C@H](CCCNC(=N)N)NC(=O)[C@H](CCC(N)=O)NC(=O)[C@@H](NC(=O)[C@H](C)NC(=O)[C@@H]1CSSC[C@H](NC(=O)[C@@H](N)CCCCNC(=O)CC[C@H](NC(=O)CCCCCCCCCCCCCCCCC(=O)O)C(=O)O)C(=O)N[C@@H](CC(N)=O)C(=O)N[C@@H]([C@@H](C)O)C(=O)N[C@@H](C)C(=O)N[C@@H]([C@@H](C)O)C(=O)N1)[C@@H](C)O)C(C)C)C(=O)N[C@@H](CC(C)C)C(=O)N1CCC[C@H]1C(=O)N1CCC[C@H]1C(=O)N[C@H](C(=O)N[C@@H](CC(N)=O)C(=O)N[C@H](C(=O)NCC(=O)N[C@@H](CO)C(=O)N[C@@H](CC(N)=O)C(=O)N[C@H](C(=O)N[C@@H](Cc1ccc(O)cc1)C(N)=O)[C@@H](C)O)C(C)C)[C@@H](C)O [Peptide 62, K(γE-C18diacid)[CNTATC]ATQRLANF(dL)VHSS(Aib)NFGPILPPTNVGSNTY-amide] (H-K([γGlu-C18 diacid])CNTATCATQRLANF[dL]VHSS[Aib]NFGPILPPTNVGSNTY-NH2; disulfide 2-7) |
| 375 | 5 | 76 | CC[C@H](C)[C@H](NC(=O)[C@@H]1CCCN1C(=O)CNC(=O)[C@H](Cc1ccccc1)NC(=O)[C@H](CC(N)=O)NC(=O)C(C)(C)NC(=O)[C@H](CO)NC(=O)[C@H](CO)NC(=O)[C@H](Cc1c[nH]cn1)NC(=O)[C@@H](NC(=O)[C@H](CC(C)C)NC(=O)[C@H](Cc1ccccc1)NC(=O)[C@H](CC(N)=O)NC(=O)[C@H](C)NC(=O)[C@H](CC(C)C)NC(=O)[C@H](CCCNC(=N)N)NC(=O)[C@H](CCC(N)=O)NC(=O)[C@@H](NC(=O)[C@H](C)NC(=O)[C@@H]1CSSC[C@H](NC(=O)[C@@H](N)CCCCNC(=O)CC[C@H](NC(=O)CCCCCCCCCCCCCCCCC(=O)O)C(=O)O)C(=O)N[C@@H](CC(N)=O)C(=O)N[C@@H]([C@@H](C)O)C(=O)N[C@@H](C)C(=O)N[C@@H]([C@@H](C)O)C(=O)N1)[C@@H](C)O)C(C)C)C(=O)N[C@@H](CC(C)C)C(=O)N1CCC[C@H]1C(=O)N1CCC[C@H]1C(=O)N[C@H](C(=O)N[C@@H](CCCNC(=N)N)C(=O)N[C@H](C(=O)NCC(=O)N[C@@H](CO)C(=O)N[C@@H](CC(N)=O)C(=O)N[C@H](C(=O)N[C@@H](Cc1ccc(O)cc1)C(N)=O)[C@@H](C)O)C(C)C)[C@@H](C)O [Peptide 63, K(γE-C18diacid)[CNTATC]ATQRLANFLVHSS(Aib)NFGPILPPTRVGSNTY-amide] (H-K([γGlu-C18 diacid])CNTATCATQRLANFLVHSS[Aib]NFGPILPPTRVGSNTY-NH2; disulfide 2-7; N-terminus assumed) |
